Experimental findings from patent US20100099693A1, “NEW COMBINATION FOR USE IN THE TREATMENT OF INFLAMMATORY DISORDERS” (priority 2007, published 2010) are described below.

Molecules are shown by their SMILES.

Assay [1] has as its system Rat aortic smooth muscle cells (RASMC). Description: Rat aortic smooth muscle cell proliferation assay (WST-1 reagent, 5% FBS stimulated). To be noted: single drug, 48 hours, F-12/5% FBS; for inhibition at 0.1 µM: final concentration 0.1 μM; for inhibition at 0.1 µM / inhibition at 1 µM / inhibition at 10 µM: mean n=3; for inhibition at 1 µM: final concentration 1 μM; for inhibition at 10 µM: final concentration 10 μM. It is filed as cell-based. As for the experimental part:
Rat aortic smooth muscle cells (RASMC) were isolated as previously described (Hellin et al, Arterioscler. Thromb. Vasc. Biol., 17, 1977 (1997)). The cells were cultired (37° C./5% CO2) in Ham's medium F-12 supplemented with 10% fetal bovine serum (FBS), 50 μg/mL L-ascorbic acid, 50 μg/mL streptomycin and 50 IU/mL penicillin (F-12/10% FBS), grown to confluence, serially passaged by trypsinization, and used in experiments after 2-7 passages. The RASMC were seeded in 96-well plates at a density of approximately 5×10^3 cells per well in F-12/10% FBS (100 μl per well). After 72 hours, the cells were synchronized in G0/G1 phase by starvation in Ham's medium F-12 supplemented with 0.1% bovine serum albumin (BSA), 50 μg/mL L-ascorbic acid, 50 μg/mL streptomycin and 50 IU/mL penicillin (F-12/0.1% BSA) for 48 hours. After the starvation, the cells were 70-80% confluent. The experiment was then started by changing to F-12 medium containing 5% FBS, 50 μg/mL L-ascorbic acid, 50 μg/mL streptomycin and 50 IU/mL penicillin (F-12/5% FBS), without (positive control cells) or with the test drugs (drug treated cells) as described below. For comparison, some cells remained in F-12/0.1% BSA (negative control cells).
Proliferation of the RASMC cells was measured using the Cell Proliferation Reagent WST-1 (Roche Diagnostics Scandinavia AB, Bromma, Sweden). The WST-1 reagent is designed to be used for spectrophotometric quantification of e.g. cell growth in proliferation assays and was used according to the manufacturers' instructions. The wavelength for measuring absorbance was 450 nm and the absorbance of all untreated positive control cells exposed to the WST-1 reagent was between 1 and 2.7.
Stock solutions of ramatroban (sodium salt; see Example 19 above) and rosuvastatin (sodium salt; see Example 19 above) were made in sterile saline.
48 hours after start of the experiment as described above, the mean positive control RASMC proliferation (measured using the WST-1 reagent) was 225% of that of the negative control RASMC (n=12 in both groups). The effects of ramatroban and/or rosuvastatin (added to cells in F-12/5% FBS at the start of the experiment) on RASMC proliferation were studied 48 hours after start of the experiment.
The procedure described in Example 22 was repeated for atorvastatin (sodium salt; see Example 20 above).
The procedure described in Example 22 was repeated for simvastatin (sodium salt; see Example 21 above).
For orientation: Tetrazolium dyes change colour on reduction, which living cells bring about.

In assay [2] the test system is MonoMac-6 (MM6) cells. Description: MonoMac-6 macrophage proliferation assay (WST-1 reagent). It is filed as cell-based, human. To be noted: single drug, 48 hours; for inhibition at 10 µM / inhibition at 30 µM / inhibition at 100 µM: Homo sapiens, MONO-MAC-6, WST-1, mean n=4; for inhibition at 10 µM: final concentration 10 μM; for inhibition at 30 µM: final concentration 30 μM; for inhibition at 100 µM: final concentration 100 μM. The protocol:
Cells from the human macrophage cell-line MonoMac-6 (MM6) (Ziegler-Heitbrock et al, Int. J. Cancer, 41, 456 (1988)) were cultured (37° C./5% CO2) in RPMI-1640 medium supplemented with 1 mM sodium pyruvate, 1× nonessential amino acids, 1-100 μg/mL insulin, 1 mM oxalacetic acid, 100 units/mL penicillin, 100 μg/mL streptomycin and 10% (v/v) fetal bovine serum. At the start of the experiment, MM6 cells were seeded in 96-well plates at a density of 1×10^5 cells/mL (100 μl per well). Proliferation of the MM6 cells was measured using the Cell Proliferation Reagent WST-1 (Roche Diagnostics Scandinavia AB, Bromma, Sweden) or by cell counting using a microscope. The WST-1 reagent is designed to be used for spectrophotometric quantification of e.g. cell growth in proliferation assays and was used according to the manufacturers' instructions. The wavelength for measuring absorbance was 450 nm and the absorbance of all untreated control cells exposed to the WST-1 reagent was between 1.0 and 2.5. Stock solutions of ramatroban (sodium salt; ramatroban was purchased from Cayman Chemical, Ann Arbor, Mich., USA as free acid and converted to sodium salt by adding one equivalent of aqueous NaOH) and rosuvastatin (sodium salt; rosuvastatin was extracted and purified from commercially available Crestor® tablets and isolated as sodium salt as described in Bioorganic & Medicinal Chemistry, Vol. 5, No. 5, pp 437-444, 1997) were made in sterile saline.
The effects of ramatroban and/or rosuvastatin (added at the start of the experiments) on MM6 cell proliferation were studied 48 hours after start of the experiments using the WST-1 reagent described above.
The procedure described in Example 19 was repeated for atorvastatin (sodium salt; received as atorvastatin calcium as a gift from Biocon, Ltd., Bangalore, India and converted into sodium salt by firstly converting the calcium salt into the free acid by addition of aqueous hydrochloric acid and then, after isolation via extraction, adding one equivalent of aqueous NaOH).
The procedure described in Example 19 was repeated for simvastatin (sodium salt; simvastatin was received as the lactone as a gift from Biocon, Ltd., Bangalore, India and isolated as the sodium salt following lactone ring opening via hydrolysis using one equivalent of NaOH in water and ethanol at 60° C.).

For the compound `CCC(C)(C)C(=O)O[C@H]1C[C@@H](C)C=C2C=C[C@H](C)[C@H](CC[C@@H]3C[C@@H](O)CC(=O)O3)[C@H]21` [simvastatin], in assay [1], the inhibition (commonly the share of the control response that was lost under treatment) at 0.1 µM came out at 23.8%, at 1 µM the inhibition was 0% and the inhibition at 10 µM amounted to 74.3%. In assay [2], this compound displayed an inhibition at 10 µM of 21.3%, an inhibition at 30 µM of 68.1% and an inhibition at 100 µM of 85%.

On to `O=C(O)CCn1c2c(c3ccccc31)C[C@H](NS(=O)(=O)c1ccc(F)cc1)CC2` [ramatroban], for which the inhibition at 100 µM was 11.9% in assay [1] (final concentration 100 μM, mean n=6) and 15.2% in assay [2]. The “effect on MM6 proliferation (in words)” value in assay [2] (10 μM, data not shown) was “effect similar to that of 100 μM of ramatroban”.

In the case of `CC(C)c1c(C(=O)Nc2ccccc2)c(-c2ccccc2)c(-c2ccc(F)cc2)n1CC[C@@H](O)C[C@@H](O)CC(=O)O` [atorvastatin], in assay [1], the inhibition at 0.1 µM came to 27.4%, the inhibition at 1 µM was determined as 0% and the inhibition at 10 µM was determined as 18.9%. In assay [2], this compound gave an inhibition at 10 µM of 16.8%, an inhibition at 30 µM of 27.8% and an inhibition at 100 µM of 71.7%.

In assay [1], `CC(C)c1nc(N(C)S(C)(=O)=O)nc(-c2ccc(F)cc2)c1/C=C/[C@@H](O)C[C@@H](O)CC(=O)O` [rosuvastatin] yielded an inhibition at 0.1 µM of 5.3%, an inhibition at 1 µM of 0% and an inhibition at 10 µM of 21.7%. Moreover, in assay [2], at 10 µM the inhibition was 11.5%, at 30 µM the inhibition was 31.2% and the inhibition at 100 µM was determined as 70.1%.
